The test concerns the target T1, DltA enzyme (Streptococcus agalactiae serotype III, UniProt Q8VM67).
T1 construct: His-tag (from pET100 vector) (N); made in house; host or cells: E. coli BL21 (DE3) Star
T1 sequence (Q8VM67 1-511): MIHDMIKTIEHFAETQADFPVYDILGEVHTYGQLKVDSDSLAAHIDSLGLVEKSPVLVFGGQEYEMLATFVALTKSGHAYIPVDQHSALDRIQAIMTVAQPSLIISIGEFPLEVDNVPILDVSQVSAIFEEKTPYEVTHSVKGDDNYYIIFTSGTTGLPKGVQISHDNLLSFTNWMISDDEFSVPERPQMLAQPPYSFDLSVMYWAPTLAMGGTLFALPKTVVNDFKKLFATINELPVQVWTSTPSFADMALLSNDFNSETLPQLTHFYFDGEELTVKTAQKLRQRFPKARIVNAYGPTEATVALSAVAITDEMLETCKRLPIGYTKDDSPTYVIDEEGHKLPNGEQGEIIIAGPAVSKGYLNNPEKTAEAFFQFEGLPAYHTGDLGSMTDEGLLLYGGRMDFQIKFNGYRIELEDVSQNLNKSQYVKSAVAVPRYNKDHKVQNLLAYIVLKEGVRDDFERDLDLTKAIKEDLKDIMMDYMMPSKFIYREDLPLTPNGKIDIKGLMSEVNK
Briefly: DltA HTS assays (luminescent / fluorescent), inhibition of DltA enzymatic activity in vitro. Format: biochemical, S. agalactiae. An excerpt: The compounds effect on DltA enzyme has been based on the measure of the inhibition of DltA activity in vitro.
To this end, a recombinant protein Dlta was expressed and purified after cloning of the gene of S. agalatiae as described below:
Methods 1: DltA HTS Assays
The assay described below makes use of dithiothreitol (DTT) instead of DltC as reactive thiol in the catalyzed reaction. In fact, the inventors have shown that DTT, but also Coenzyme A and N-Acetylcysteamine are all thiols able to replace efficiently DltC. In addition, contrary to the prior art, radioactivity is not used: all the assays are based either on luminescent ATP detection, or on fluorescent AMP detection. They are easily amenable to miniaturized formats and fast readouts as required by HTS.
The assay buffer “AB” contains 50 mM Hepes pH8.0, 10 mM MgCl2, 50 mM KCl, 0.012% Triton-X100. The following components are added in a white polystyrene Costar plate up to a final volume of 30 μL: 3 μL DMSO, or inhibitor dissolved in DMSO and 27 μL DltA enzyme and DTT in AB. After 30 min of pre-incubation at room temperature, 30 μL of Substrates mix in AB are added in each well to a final volume of 60 μL. This reaction mixture is then composed of 10 nM DltA (produced in house from S. agalactiae), 0.5 mM D-Alanine (Sigma), 0.5 μM ATP (Sigma) and 1 mM DTT (Biochemika) in assay buffer. After 90 min of incubation at room temperature, 30 μL of the revelation mix are added to a final volume of 90 μL, including the following constituents at the respective final concentrations: 2 nM luciferase (Sigma), 30 μM D-luciferin (Sigma), 100 μM N-acetylcysteamine (Aldrich). Luminescence intensity is immediately measured on an Analyst-HT (Molecular Devices) and converted into inhibition percentages. For IC50 (Inhibitory Concentration 50%) determinations, the inhibitor is added at 6 to 10 different concentrations, and the related inhibitions are fitted to a classical langmuir equilibrium model using XLFIT (IDBS).
The assay buffer “AB” contains 50 mM Hepes pH8.0, 10 mM MgCl2, 50 mM KCl, 0.012% Triton-X100. The following components are added in a black polystyrene Costar plate up to a final volume of 50 μL: 5 μL DMSO, or inhibitor dissolved in DMSO and 45 μL DltA enzyme and DTT in AB. After 30 min of pre-incubation at room temperature, 50 μL of Substrates-revelation mix in AB are added in each well to a final volume of 100 μL. This reaction mixture is then composed of 5 nM DltA (produced in house from S. agalactiae), 0.5 mM D-Alanine (Sigma), 10 μM ATP (Sigma), 1 mM DTT (Biochemika), 10 nM Adenylate kinase (produced in house), 5 u/mL Pyruvate Kinase (Sigma), 50 μM phosphoenolpyruvate (Sigma), 5 u/mL Lactate deshydrogenase (Sigma) and 3 μM NADH (Sigma) in assay buffer. Fluorescence intensity of NADH (λex=360 nm, λem=520 nm) is immediately measured kinetically by a Fluostar Optima (BMG). Inhibition percentages are derived from fitted initial velocities. For IC50 determinations, the inhibitor is added at 6 to 10 different concentrations, and the related inhibitions are fitted to a classical langmuir equilibrium model using XLFIT (IDBS). FIG. 2 represents the data obtained using this method.
The capacity of compounds to inhibit DltA enzymatic activity was assessed using the DltA HTS assays described in method 1.

Where [1] appears, read: Table 1, DltA inhibition, HTS assays of method 1, read-out: IC50.

pIC50: −log10 of the molar value. Where a name gives a salt, the structure may show the parent alone. Read-outs that look alike come from different tables or passages of the source.

`COc1ccc(-c2cc(-c3cnc4c(NCCCO)nc5cc(C(F)(F)F)ccc5n34)[nH]n2)cc1` [Example 31, 3-({1-[1H-pyrazol-3-(4-methoxyphenyl)-5-yl]-7-(trifluoromethyl)imidazo[1,2-a]quinoxalin-4-yl}amino)propan-1-ol]: the negative logarithm of the IC50 (pIC50) – broadly, the IC50 on a negative log10 scale, so that one unit is a factor of ten – is 6.10. `OCCCNc1nc2cc(C(F)(F)F)ccc2n2c(-c3cc(-c4ccccc4)n[nH]3)cnc12` [Example 32, 3-({1-[3-phenyl-1H-pyrazol-5-yl]-7-(trifluoromethyl)imidazo[1,2-a]quinoxalin-4-yl}amino)propan-1-ol]: the pIC50 under setting [1] is 7.38. Same read-out and setting: the value for `OCCCNc1nc2cc(C(F)(F)F)ccc2n2c(-c3cc(-c4cccnc4)n[nH]3)cnc12` [Example 33, 3-({1-[3-(3-pyridinyl)-1H-pyrazol-5-yl]-7-(trifluoromethyl)imidazo[1,2-a]quinoxalin-4-yl}amino)propan-1-ol] was 7.60; that for `OCCCNc1nc2cc(C(F)(F)F)ccc2n2c(-c3cn(Cc4ccccc4)nn3)cnc12` [Example 34] was 6.24.

On to `OCCCNc1nc2cc(C(F)(F)F)ccc2n2c(-c3cc(O)n[nH]3)cnc12` [Example 37, 3-({1-(3-hydroxy-1H-pyrazol-5-yl)-7-(trifluoromethyl)imidazo[1,2-a]quinoxalin-4-yl}amino)propan-1-ol], for which the pIC50 under setting [1] was 6.80. On the same count and under the same terms, the value for `OCCCNc1nc2cc(C(F)(F)F)ccc2n2c(-c3[nH]ncc3Cl)cnc12` [Example 38, 3-({1-(4-chloro-1H-pyrazol-5-yl)-7-(trifluoromethyl)imidazo[1,2-a]quinoxalin-4-yl}amino)propan-1-ol] was 7.87. Same read-out and setting: to `Cc1cn[nH]c1-c1cnc2c(NCCCO)nc3cc(C(F)(F)F)ccc3n12` [Example 40, 3-({1-[4-methyl-1H-pyrazol-5-yl]-7-(trifluoromethyl)imidazo[1,2-a]quinoxalin-4-yl}amino)propan-1-ol] belongs 7.24; to `O=Cc1cnc2c(NCCCO)nc3cc(C(F)(F)F)ccc3n12` [Example 41, 4-[(3-hydroxypropyl)amino]-7-(trifluoromethyl)imidazo[1,2-a]quinoxaline-1-carbaldehyde], 5.34.

With `OCCCNc1nc2cc(C(F)(F)F)ccc2n2c(CO)cnc12` [Example 42, 3-{[1-(hydroxymethyl)-7-(trifluoromethyl)imidazo[1,2-a]quinoxalin-4-yl]amino}propan-1-ol], the pIC50 under setting [1] is 5.96.

Consider `CNC(=O)NCc1cnc2c(NCCCO)nc3cc(C(F)(F)F)ccc3n12` [Example 43, 1-({4-[(3-hydroxypropyl)amino]-7-(trifluoromethyl)imidazo[1,2-a]quinoxalin-1-yl}methyl)-3-methylurea], for which the pIC50 under setting [1] was 5.92.

As for `OCCCNc1nc2cc(C(F)(F)F)ccc2n2c(CNCc3ccccc3)cnc12` [Example 44, 3-({1-[(benzylamino)methyl]-7-(trifluoromethyl)imidazo[1,2-a]quinoxalin-4-yl}amino)propan-1-ol], under setting [1], the pIC50 is 5.21.

As for `NCc1cnc2c(NCCCO)nc3cc(C(F)(F)F)ccc3n12` [Example 45, 3-{[1-(aminomethyl)-7-(trifluoromethyl)imidazo[1,2-a]quinoxalin-4-yl]amino}propan-1-ol], the pIC50 under setting [1] is 5.26. As to `OCCCNc1nc2cc(C(F)(F)F)ccc2n2c(-c3ncc[nH]3)cnc12` [Example 46, 3-{[1-(1H-imidazol-2-yl)-7-(trifluoromethyl)imidazo[1,2-a]quinoxalin-4-yl]amino}propan-1-ol], under setting [1], the pIC50 was 5.46. On to `O=C(O)c1cc(-c2cnc3c(NCCCO)nc4cc(C(F)(F)F)ccc4n23)[nH]n1` [Example 48, 5-{4-[(3-hydroxypropyl)amino]-7-(trifluoromethyl)imidazo[1,2-a]quinoxalin-1-yl}-1H-pyrazole-3-carboxylic acid], for which the pIC50 under setting [1] was 5.30. The same measure, in the same setting: to `OCCCNc1nc2cc(C(F)(F)F)ccc2n2c(-c3cc(CO)n[nH]3)cnc12` [Example 49, 3-({1-[3-(hydroxymethyl)-1H-pyrazol-5-yl]-7(trifluoromethyl)imidazo[1,2-a]quinoxalin-4-yl}amino)propan-1-ol] belongs 7.80; to `OCCCNc1nc2cc(C(F)(F)F)c(Br)cc2n2ccnc12` [Example 52, 3-(8-bromo-7-trifluoromethyl-imidazo[1,2-a]quinoxalin-4-ylamino)-propan-1-ol], 5.06.

Consider `OCCCNc1nc2cc(C(F)(F)F)c(CNc3ccccn3)cc2n2ccnc12` [Example 53, 3-({8-[(pyridin-2-ylamino)methyl]-7-(trifluoromethyl)imidazo[1,2-a]quinoxalin-4-yl}amino)propan-1-ol], for which the pIC50 under setting [1] is 6.29. Turning to `OCCCNc1nc2cc(-c3ccccc3C(F)(F)F)ccc2n2c(-c3ccn[nH]3)cnc12` [Example 54, 3-{[1-(1H-pyrazol-5-yl)-7-(2-[trifluoromethyl]phenyl)imidazo[1,2-a]quinoxalin-4-yl]amino}propan-1-ol], the pIC50 under setting [1] was 7.66. Same read-out and setting: to `Cc1n[nH]c(-c2cnc3c(NCCCO)nc4cc(OC(F)(F)F)ccc4n23)n1` [Example 55] belongs 7.60; to `OCCCNc1nc2cc(C(F)(F)F)c(NCc3ccccc3)cc2n2ccnc12` [Example 56, 3-{[8-(benzylamino)-7-(trifluoromethyl)imidazo[1,2-a]quinoxalin-4-yl]amino}propan-1-ol], 6.09. As for `OCCCNc1nc2cc(F)c(F)cc2n2ccnc12` [Example 57, 3-[(7,8-difluoroimidazo[1,2-a]quinoxalin-4-yl)amino]propan-1-ol], the pIC50 under setting [1] is 4.24. Same read-out and setting: the value for `O=P(O)(O)OCCCNc1nc2cc(C(F)(F)F)ccc2n2c(-c3ccn[nH]3)cnc12` [Example 58, Phosphoric acid mono-{3-[1-(2H-pyrazol-3-yl)-7-trifluoromethyl-imidazo[1,2-a]quinoxalin-4-ylamino]-propyl}ester, disodium salt] was 4.72.
